“Also recorded” adds a separate entry of the source.
Tests used:
ed. Dd2-B2 TKL3I1250M = assay: 72-h ABS assay, CRISPR/Cas9-edited line; type: cell-based; conditions: Plasmodium falciparum, parent Dd2-B2 wild-type
Protocol: (§1) Synchronicity was achieved using three rounds of sorbitol treatment on early rings, spaced 48 h apart, followed by magnetic purification of segmented schizonts following the final sorbitol treatment. Parasites were highly synchronous to within a 3 h window of development. Assays were repeated on at least three independent occasions (each with technical duplicates) and statistical significance was assessed using Mann Whitney U tests.
(§2) The resulting MMV030084-resistant parasites were cloned by limiting dilution ([Baker et al., 2017]) to obtain genetically homogenous cultures for further phenotyping and whole-genome sequencing. A second round of […]. […] Drug susceptibility of resistant lines was assessed using a 72 h ABS assay as described above, and a Mann Whitney U test was applied to assess statistically significant differences.
(§3) A CRISPR/Cas9 targeted gene editing strategy using an all-in-one plasmid approach was applied to introduce T1268R, I1250M and T1268R+I1250M in wild-type Dd2-B2 parasites or to produce a TKL3 KO line by inserting a stop codon and frameshift at amino acid position 1268. […] WR99210 (2.5 nM) was added to the culture medium 24 h after electroporation to select for successfully transfected parasites and was maintained in the medium until edited parasites were detected. […]

ed. Dd2-B2 TKL3T1268R = assay: 72-h ABS assay, CRISPR/Cas9-edited line; type: cell-based; conditions: Plasmodium falciparum, parent Dd2-B2 wild-type
Protocol: as §1, §2, §3

Pf NF54 female gametes = assay: Dual gamete formation assay, female gamete formation; type: cell-based, Plasmodium falciparum; conditions: carry-over and wash-out
Protocol: Pf NF54 gametocytes were generated as reported elsewhere ([Delves et al., 2016]). Briefly, static cultures of unsynchronized asexual parasites were continuously maintained as above. Parasites were cultured at 1% ring-stage parasitemias and 4% (v/v) hematocrit prior to the induction of gametocytes. To prepare gametocytes, 75% of the media was replaced daily for 14 subsequent days without adding fresh RBCs. During this process the temperature was kept strictly constant, as the rate of exflagellation is highly temperature-dependent. Between days 1 and 4 after culture induction, the asexual parasitemias increased rapidly to a peak. By day 7, as the asexual population waned, early-stage gametocytes became observable. By day 8, gametocyte maturation had progressed, and by day 14 morphologically distinguishable, mature stage V male and female gametocytes were present. […] Control reactions contained DMSO or 20 μM methylene blue (as negative and positive controls, respectively). […] After imaging, the plate was incubated at 18°C for a further 24 h to allow female gametes to maximally express Pfs25, followed by fluorescence microscopy imaging using a 10× objective. Both time lapse images of exflagellation and fluorescence images of female gametes were automatically quantified using custom scripts in ICY BioImage Analysis ([Delves et al., 2016]).

[1] = tested on: phosphoproteome of Dd2-B2 Pf schizonts; assay: Phosphoproteomics of Dd2-B2 schizonts exposed to 1200 nM MMV030084 for 3 h; type: cell-based, Plasmodium falciparum; conditions: 1,200 nM, vs untreated
Protocol: Red blood cells were lysed by 0.1% saponin in washing buffer (20 mM β-glycerophosphate, 1 tablet of cOmplete protease inhibitor cocktail (Roche), and 1 tablet of PhosSTOP phosphatase inhibitor (Roche) per 10 ml PBS). Parasites were subsequently washed three times in washing buffer. Parasite pellets were stored at -80°C until all samples from two independently repeated exposure experiments were collected. Proteins were extracted from schizont pellets by sonication and lysis in Tris-EDTA buffer (10 mM Tris-HCl, 5 mM EDTA, 20 mM ß-glycerolphosphate; pH 7.4, 1% NP-40, 2% CHAPS) followed by reduction of disulfide bonds and alkylation. Samples were digested with trypsin at a ratio of 1:15 (w/w) trypsin and proteins concentrated using S-trap columns (ProtiFi) for 1 h at 47°C. For tandem mass tag (TMT) labelling, digested samples were incubated with TMTsixplex reagents (Thermo Scientific). All labeled samples were pooled together, loaded onto an anion-exchange column, and fractionated on an AKTA purifier (GE Healthcare). The fractions were concentrated and phosphopeptides were enriched using titanium dioxide (TiO2) and immobilized metal affinity chromatography (IMAC). […] We also analyzed the peptide sequences for patterns that conformed to the previously established PfPKG consensus motif K/RR/KxpS/pT and the PfPKA consensus motif K/RxxpS/pT ([Francis et al., 2010]).

CC(C)(CN)c1nc(-c2ccc(Cl)c(O)c2)c(-c2ccncc2)[nH]1 [MMV030084] was tested. Which IC50 (ed. Dd2-B2 TKL3I1250M) did it give?
The IC50 was 307 nM.

What about the IC50 (ed. Dd2-B2 TKL3T1268R) of the same molecule?
Its IC50 is 317 nM.

What about the “Activity against female gametes” value (Pf NF54 female gametes) of the same molecule?
The value was “ambiguous results; also recorded: little to no activity”.

What about the “Number of proteins with increased phosphorylation levels” value [1] of the same molecule?
The value was 15.

What about the “Number of proteins with phosphorylation status reduced by more than 35%” value [1] of the same molecule?
The value was 16.
